Experimental data as given in patent US20250353891A1 (MEDIMMUNE LIMITED, priority 2022, published 2025).
Where two headings read alike, the source gives them in different places. Starred links: 1 amine or outer side, 2 acyl side, 3 side chain; linkers in the order of their positions; H or OH if unused. Non-standard residues stand in square brackets, D forms with d. Residues, ends and D or L forms follow the SMILES beside them. Groups on a side chain read outwards from the residue. *: point of attachment. C20 diacid = O=C(O)CCCCCCCCCCCCCCCCCCC(=O)*; C18 diacid = O=C(O)CCCCCCCCCCCCCCCCC(=O)*; Dip = N[C@H](C(=O)O)C(c1ccccc1)c1ccccc1; γGlu = O=C(O)[C@H](CCC(=O)[*:2])N[*:1]; αMeF = C[C@](N)(Cc1ccccc1)C(=O)O; Myristoyl = CCCCCCCCCCCCCC(=O)*; PEG2 = NCCOCCOCCC(=O)O; AEEA = NCCOCCOCC(=O)O; Aib = CC(C)(N)C(=O)O

Columns and labels:
[1] = molecular target: human GLP-1 receptor (hGLP-1R) (Homo sapiens, UniProt P43220); assay: cAMP production (HTRF) in CHO cells expressing hGLP-1R; format: cell-based; design: expressed in transfected cells; conditions: for EC50: cAMP in CHO hGLP-1R cells, geometric mean, read-out: hGLP-1R EC50; for % Relative Potency Ratio: % GLP-1R activity relative to GLP-1 / % GlucR activity relative to glucagon
Chain of human GLP-1 receptor (hGLP-1R) (P43220 24-463): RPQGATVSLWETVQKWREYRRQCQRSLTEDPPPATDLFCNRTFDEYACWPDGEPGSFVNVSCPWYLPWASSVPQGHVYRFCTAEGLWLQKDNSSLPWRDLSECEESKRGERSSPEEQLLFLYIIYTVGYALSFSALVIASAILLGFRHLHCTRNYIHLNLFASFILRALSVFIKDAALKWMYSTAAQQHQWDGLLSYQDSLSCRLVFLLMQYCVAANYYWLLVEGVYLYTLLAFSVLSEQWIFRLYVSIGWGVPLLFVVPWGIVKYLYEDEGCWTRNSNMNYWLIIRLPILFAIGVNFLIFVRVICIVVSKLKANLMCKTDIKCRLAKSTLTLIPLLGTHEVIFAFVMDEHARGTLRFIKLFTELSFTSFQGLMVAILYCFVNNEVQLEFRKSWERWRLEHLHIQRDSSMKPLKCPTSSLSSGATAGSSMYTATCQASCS
In short: (§1)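 Cells were resuspended in assay buffer at batch-optimized density, typically 1×10^5 cells/mL for hGLP-1R and 2×10^5 cells/mL for hGCGR. After 30 min incubation at room temperature with compound, cAMP was measured by two-step HTRF. EC50 values came from 4-parameter logistic fits of % Delta F.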

[2] = system: GLP-1R knockout (KO) mice; assay: Glucose change in GLP-1R knockout mice; format: in vivo, mouse; conditions: GLP-1R KO mice, s.c.; for GLP-1R KO % glucose change 120 min: 120 min vs 0 min; for GLP-1R KO % glucose change - 60 min: 60 min vs 0 min
Experimental: (§2) They acclimated for a minimum of ˜1-2 weeks, and mice were sorted into groups (n=4-8/group) based on body weight. On day of study, mice were fasted briefly for 2 hrs prior to study start. In some studies, mice were pre-treated with octreotide (BaChem, 10 mg/kg) at 30 minutes prior to peptide injection. Glucose was measured via glucometer at various timepoints including-30 min (prior to octreotide when used in studies), 0 min (before peptide dose), 30, 60, 120, 180, 240, and 360 minutes. Since these studies are acute in nature, mice were re-used for multiple studies (no more than 3) and always allowed at least a minimum wash-out period of 1 week.

wildtype (WT) mice = assay: Glucose change in wildtype mice; format: in vivo, mouse; conditions: s.c.; for WT % glucose change 120 min: 120 min vs 0 min; for WT % glucose change 60 min: 60 min vs 0 min
Experimental: as §2, with “GLP-1R knockout (KO) and wildtype (WT) mice at 8-14 weeks of age were singly housed on standard chow diet (Envigo, 2918) and automatic water. They” for “They”

[3] = Mouse acute food intake study; format: in vivo; conditions: male C57Bl/6 mice, s.c., cumulative food intake at 24 hr vs vehicle
In short: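 Single-housed male C57Bl/6 mice (8-9 weeks on arrival), chow-fed, acclimated and sham-dosed ≥2 times, were fasted 6-8 h, then given vehicle or peptide subcutaneously at 5 mL/kg 1-2 h before lights out. Food intake was recorded automatically over 48 h and analysed as cumulative intake.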

[4] = molecular target: human glucagon receptor (hGCGR) (Homo sapiens, UniProt P47871); assay: cAMP production (HTRF) in CHO cells expressing hGCGR; format: cell-based; design: expressed in transfected cells; conditions: cAMP in CHO hGCGR cells, geometric mean, read-out: hGluc-R EC50
Chain of human glucagon receptor (hGCGR) (P47871 26-477): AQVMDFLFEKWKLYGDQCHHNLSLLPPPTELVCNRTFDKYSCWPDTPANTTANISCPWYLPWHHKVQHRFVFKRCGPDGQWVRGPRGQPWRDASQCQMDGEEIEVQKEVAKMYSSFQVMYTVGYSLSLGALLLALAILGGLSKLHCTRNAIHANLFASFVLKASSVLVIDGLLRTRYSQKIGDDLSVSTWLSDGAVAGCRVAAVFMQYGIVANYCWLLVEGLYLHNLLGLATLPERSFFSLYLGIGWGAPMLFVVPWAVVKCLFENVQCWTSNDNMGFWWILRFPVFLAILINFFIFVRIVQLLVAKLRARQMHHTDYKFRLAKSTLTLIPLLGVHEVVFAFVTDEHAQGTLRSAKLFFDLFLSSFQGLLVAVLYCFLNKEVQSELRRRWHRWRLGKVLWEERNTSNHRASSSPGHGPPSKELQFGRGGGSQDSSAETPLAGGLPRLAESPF
In short: as §1

[5] = Table 6, peptides modified at position 17
[6] = 10 nmol/kg, somatostatin pretreatment (octreotide) 30 min prior to cpd
[7] = 30 nmol/kg, somatostatin pretreatment (octreotide) 30 min prior to cpd
[8] = Table 7, peptides modified at position 20
[9] = 10 nmol/kg, no somatostatin pretreatment
[10] = 30 nmol/kg, no somatostatin pretreatment

Row | Compound | EC50 [1, 5] [nM] | % Relative Potency Ratio ([1]; Table 6) | GLP-1R KO % glucose change 120 min [2, 6] [%] | GLP-1R KO % glucose change 120 min [2, 7] [%] | WT % glucose change 120 min (wildtype (WT) mice; [6]) [%] | WT % glucose change 120 min (wildtype (WT) mice; [7]) [%] | 24 hr % Vehicle Food Intake ([3]; dose 10 nmol/kg) [%] | EC50 [4, 5] [nM] | EC50 [1, 8] [nM] | % Relative Potency Ratio ([1]; Table 7) | EC50 [4, 8] [nM] | GLP-1R KO % glucose change 120 min [2, 9] [%] | GLP-1R KO % glucose change 120 min [2, 10] [%] | WT % glucose change 120 min (wildtype (WT) mice; [9]) [%] | WT % glucose change 120 min (wildtype (WT) mice; [10]) [%] | 24 hr % Vehicle Food Intake ([3]; dose 3 nmol/kg) [%] | GLP-1R KO % glucose change - 60 min [2, 9] [%] | GLP-1R KO % glucose change - 60 min [2, 10] [%] | WT % glucose change 60 min (wildtype (WT) mice; [9]) [%] | WT % glucose change 60 min (wildtype (WT) mice; [10]) [%]
1 | CCCCCCCCCCCCCC(=O)N[C@@H](CCC(=O)N[C@@H](CCC(=O)NCCOCCOCCC(=O)NCCOCCOCCC(=O)NCCCC[C@H](NC(=O)[C@H](CO)NC(=O)[C@H](CC(=O)O)NC(=O)[C@H](CC(C)C)NC(=O)[C@@H](NC(=O)[C@H](CCCCN)NC(=O)[C@H](CO)NC(=O)[C@@H](NC(=O)[C@H](CC(=O)O)NC(=O)[C@H](CO)NC(=O)[C@@H](NC(=O)[C@](C)(Cc1ccccc1)NC(=O)[C@H](CO)NC(=O)CNC(=O)[C@H](CCC(N)=O)NC(=O)[C@H](CO)NC(=O)[C@@H](N)Cc1c[nH]cn1)[C@@H](C)O)C(C)C)C(c1ccccc1)c1ccccc1)C(=O)N[C@@H](C)C(=O)N[C@@H](C)C(=O)N[C@@H](CCC(N)=O)C(=O)N[C@@H](CC(=O)O)C(=O)N[C@@](C)(Cc1ccccc1)C(=O)N[C@H](C(=O)N[C@@H](CCC(=O)O)C(=O)NC(C)(C)C(=O)N[C@H](C(=O)N[C@H](C(=O)N[C@@H](CC(N)=O)C(=O)N[C@H](C(N)=O)[C@@H](C)O)[C@@H](C)CC)[C@@H](C)CC)C(C)C)C(=O)O)C(=O)O [Peptide 63] (H-HSQGS[αMeF]TSDVSK[Dip]LDSK([PEG2-PEG2-γGlu-γGlu-Myristoyl])AAQD[αMeF]VE[Aib]IINT-NH2; N-terminus assumed) | 0.00314 | 1.6 | 68.2 | 113.0 | −26.4 | −23.8 | 37.9 | 0.00249 | – | – | – | – | – | – | – | – | – | – | – | –
2 | CC[C@H](C)[C@H](NC(=O)[C@H](Cc1c[nH]c2ccccc12)NC(=O)[C@H](CCC(N)=O)NC(=O)[C@@H](NC(=O)[C@H](Cc1ccccc1)NC(=O)[C@H](CC(=O)O)NC(=O)[C@H](CCCCNC(=O)COCCOCCNC(=O)COCCOCCNC(=O)CC[C@H](NC(=O)CCCCCCCCCCCCCCCCC(=O)O)C(=O)O)NC(=O)[C@H](C)NC(=O)[C@H](C)NC(=O)[C@H](CCC(N)=O)NC(=O)[C@H](CO)NC(=O)[C@H](CC(=O)O)NC(=O)[C@H](CC(C)C)NC(=O)[C@](C)(Cc1ccccc1)NC(=O)[C@H](CCCCN)NC(=O)[C@H](CO)NC(=O)[C@@H](NC(=O)[C@H](CC(=O)O)NC(=O)[C@H](CO)NC(=O)[C@@H](NC(=O)[C@](C)(Cc1ccccc1)NC(=O)[C@H](CO)NC(=O)CNC(=O)[C@H](Cc1c[nH]cn1)NC(=O)C(C)(C)NC(=O)[C@@H](N)Cc1c[nH]cn1)[C@@H](C)O)C(C)C)C(C)C)C(=O)N[C@@H](C)C(=O)N[C@@H](CC(N)=O)C(=O)N[C@H](C(N)=O)[C@@H](C)O [Peptide 203] (H-H[Aib]HGS[αMeF]TSDVSK[αMeF]LDSQAAK([AEEA-AEEA-γGlu-C18 diacid])DFVQWIANT-NH2; N-terminus assumed) | – | – | 54.6 | 106.9 | −29.5 | −36.5 | 81.4 | – | 0.0775 | 0.9 | 0.0341 | – | – | – | – | – | – | – | – | –
3 | CC[C@H](C)[C@H](NC(=O)[C@H](Cc1c[nH]c2ccccc12)NC(=O)[C@H](CCC(N)=O)NC(=O)[C@@H](NC(=O)[C@H](Cc1ccccc1)NC(=O)[C@H](CC(=O)O)NC(=O)[C@H](CCCCNC(=O)COCCOCCNC(=O)COCCOCCNC(=O)CC[C@H](NC(=O)CC[C@H](NC(=O)CCCCCCCCCCCCCCCCCCC(=O)O)C(=O)O)C(=O)O)NC(=O)[C@H](C)NC(=O)[C@H](C)NC(=O)[C@H](CCCNC(=N)N)NC(=O)[C@H](CO)NC(=O)[C@H](CC(=O)O)NC(=O)[C@H](CC(C)C)NC(=O)[C@H](Cc1ccc(O)cc1)NC(=O)[C@H](CCCCN)NC(=O)[C@H](CO)NC(=O)[C@@H](NC(=O)[C@H](CC(=O)O)NC(=O)[C@H](CO)NC(=O)[C@@H](NC(=O)[C@](C)(Cc1ccccc1)NC(=O)[C@H](CO)NC(=O)CNC(=O)[C@H](Cc1c[nH]cn1)NC(=O)C(C)(C)NC(=O)[C@@H](N)Cc1c[nH]cn1)[C@@H](C)O)C(C)C)C(C)C)C(=O)N[C@@H](C)C(=O)N[C@@H](CC(N)=O)C(=O)N[C@H](C(N)=O)[C@@H](C)O [Peptide 289] (H-H[Aib]HGS[αMeF]TSDVSKYLDSRAAK([AEEA-AEEA-γGlu-γGlu-C20 diacid])DFVQWIANT-NH2) | – | – | – | – | – | – | 49.6 | – | 0.118 | 2.5 | 0.148 | 8.9 | 7.7 | −8.5 | −16.1 | 76.1 | – | – | – | –
4 | CC[C@H](C)[C@H](NC(=O)C(C)(C)NC(=O)[C@H](C)NC(=O)[C@@H](NC(=O)[C@](C)(Cc1ccccc1)NC(=O)[C@H](CC(=O)O)NC(=O)[C@H](CCCCNC(=O)COCCOCCNC(=O)COCCOCCNC(=O)CC[C@H](NC(=O)CCCCCCCCCCCCCCCCC(=O)O)C(=O)O)NC(=O)[C@H](C)NC(=O)[C@H](C)NC(=O)[C@H](CCCNC(=N)N)NC(=O)[C@H](CO)NC(=O)[C@H](CC(=O)O)NC(=O)[C@H](CC(C)C)NC(=O)[C@](C)(Cc1ccccc1)NC(=O)[C@H](CCCCN)NC(=O)[C@H](CO)NC(=O)[C@@H](NC(=O)[C@H](CC(=O)O)NC(=O)[C@H](CO)NC(=O)[C@@H](NC(=O)[C@](C)(Cc1ccccc1)NC(=O)[C@H](CO)NC(=O)CNC(=O)[C@H](Cc1c[nH]cn1)NC(=O)C(C)(C)NC(=O)[C@@H](N)Cc1c[nH]cn1)[C@@H](C)O)C(C)C)[C@@H](C)CC)C(=O)N[C@@H](C)C(=O)N[C@@H](CCC(=O)O)C(=O)N[C@H](C(N)=O)[C@@H](C)O [Peptide 301] (H-H[Aib]HGS[αMeF]TSDVSK[αMeF]LDSRAAK([AEEA-AEEA-γGlu-C18 diacid])D[αMeF]IA[Aib]IAET-NH2; N-terminus assumed) | – | – | – | – | – | – | 54.9 | – | 0.0553 | 1.1 | 0.0318 | – | – | – | – | – | 29.1 | 17.9 | −43 | −35.7
